# In patent US20170362621A1, “ENGINEERED MULTIFUNCTIONAL ENZYMES AND METHODS OF USE” (Danisco US Inc., priority 2014, published 2017):
# Changes are numbered by the printed parent chain. Names may count otherwise.
# B1: Trichoderma reesei Bgl1 variant Bgl1-var-02, V43F (numbered per mature Bgl1, SEQ ID NO:3) (Trichoderma reesei; V74F) (protein)
# chain: VVPPAGTPWGTAYDKAKAALAKLNLQDKVGIVSGVGWNGGPCFGNTSPASKISYPSLCLQDGPLGVRYSTGSTAFTPGVQAASTWDVNLIRERGQFIGEEVKASGIHVILGPVAGPLGKTPQGGRNWEGFGVDPYLTGIAMGQTINGIQSVGVQATAKHYILNEQELNRETISSNPDDRTLHELYTWPFADAVQANVASVMCSYNKVNTTWACEDQYTLQTVLKDQLGFPGYVMTDWNAQHTTVQSANSGLDMSMPGTDFNGNNRLWGPALTNAVNSNQVPTSRVDDMVTRILAAWYLTGQDQAGYPSFNISRNVQGNHKTNVRAIARDGIVLLKNDANILPLKKPASIAVVGSAAIIGNHARNSPSCNDKGCDDGALGMGWGSGAVNYPYFVAPYDAINTRASSQGTQVTLSNTDNTSSGASAARGKDVAIVFITADSGEGYITVEGNAGDRNNLDPWHNGNALVQAVAGANSNVIVVVHSVGAIILEQILALPQVKAVVWAGLPSQESGNALVDVLWGDVSPSGKLVYTIAKSPNDYNTRIVSGGSDSFSEGLFIDYKHFDDANITPRYEFGYGLSYTKFNYSRLSVLSTAKSGPATGAVVPGGPSDLFQNVATVTVDIANSGQVTGAEVAQLYITYPSSAPRTPPKQLRGFAKLNLTPGQSGTATFNIRRRDLSYWDTASQKWVVPSGSFGISVGASSRDIRLTSTLSVA
# notes: diluted fermentation product
# B2: Trichoderma reesei Bgl1 variant Bgl1-var-03, V43L (numbered per mature Bgl1, SEQ ID NO:3) (Trichoderma reesei; V74L) (protein)
# chain: B1 chain with F43L
# notes: diluted fermentation product
# B3: Trichoderma reesei Bgl1 variant Bgl1-var-12, V43F/W237A (numbered per mature Bgl1, SEQ ID NO:3) (Trichoderma reesei; V74F/W268A) (protein)
# chain: B1 chain with W237A
# notes: diluted fermentation product
# B4: Trichoderma reesei beta-glucosidase I (Bgl1), wild type, SEQ ID NO:2 (mature SEQ ID NO:3) (Trichoderma reesei) (protein)
# chain: B1 chain with F43V
# notes: secreted mature protein
# Assays:
# [1] = molecular target: T1, Trichoderma reesei beta-glucosidase I (Bgl1), wild type, SEQ ID NO:2 (mature SEQ ID NO:3) (Trichoderma reesei, UniProt Q12715); assay: steady state kinetics, hydrolysis of pNpG; format: biochemical; conditions: 0.1-9 mM, 37° C., 30 minutes
# T1 construct: secreted mature protein
# T1 sequence (Q12715 32-744): B1 chain with F43V
# Text: (§1) The Bgl1 variants of the table above were produced as follows. The nucleotide sequences encoding these variants were synthesized by an external vendor (BaseClear, Leiden, the Netherlands), and cloned into the pTTTpyr2 vector (see, e.g., published PCT application WO2014029808). Protoplasts of a Trichoderma reesei strain (e.g., the hexa-delete strain of International Publication WO05/001036) with its cbh1, cbh2, eg1, eg2, eg3, and bgl1 deleted) were transformed with plasmid DNA encoding the variants and wild type. The resulting transformants were fermented using standard Trichoderma reesei fermentation procedures.
# (§2) Variants 02, 03 and 12 were diluted and incubated with varying concentrations of para-nitrophenol-beta-D-xylopyranoside (or para-nitrophenol-beta-D-xyloside) (pNpX) and para-nitrophenol-beta-D-glucopyranoside (pNpG) in the concentration range of 0.1-9 mM at 37° C. for 30 minutes. Reactions were stopped by addition of 100 μL 0.5 M sodium carbonate and absorbance was measured at 410 nm. Background subtracted OD410 absorbances were plotted against substrate concentration (FIG. 6B-E) and the data was fitted with a function for Michaelis-Menten kinetics using the statistical software package R. Michaelis constants and relative maximum velocities for hydrolysis of pNpX and pNpG were reported in Tables 6 and 7, below, respectively.
# [2] = molecular target: T2, Trichoderma reesei Bgl1 variant Bgl1-var-03, V43L (numbered per mature Bgl1, SEQ ID NO:3) (Trichoderma reesei, UniProt Q12715, V74L); assay: steady state kinetics, hydrolysis of pNpG; format: biochemical
# T2 construct: diluted fermentation product
# T2 sequence (Q12715 32-744 V74L): B1 chain with F43L
# Text: as §1, §2
# [3] = molecular target: T3, Trichoderma reesei Bgl1 variant Bgl1-var-12, V43F/W237A (numbered per mature Bgl1, SEQ ID NO:3) (Trichoderma reesei, UniProt Q12715, V74F/W268A); assay: steady state kinetics, hydrolysis of pNpG; format: biochemical
# T3 construct: diluted fermentation product
# T3 sequence (Q12715 32-744 V74F/W268A): B1 chain with W237A
# Text: as §1, §2
# [4] = molecular target: T4, Trichoderma reesei Bgl1 variant Bgl1-var-02, V43F (numbered per mature Bgl1, SEQ ID NO:3) (Trichoderma reesei, UniProt Q12715, V74F); assay: steady state kinetics, hydrolysis of pNpG; format: biochemical
# T4 construct: diluted fermentation product
# T4 sequence (Q12715 32-744 V74F): B1 chain
# Text: as §1, §2
# [5] = molecular target: T1, Trichoderma reesei beta-glucosidase I (Bgl1), wild type, SEQ ID NO:2 (mature SEQ ID NO:3); assay: steady state kinetics, hydrolysis of pNpX; format: biochemical; conditions: not fitted, maximum velocity obtained for Variant 03 was used
# Text: as §1, §2
# (§3) It was noted that the data for pNpX hydrolysis by the wild type Bgl1 could not be fitted with the Michaelis-Menten function. In order to calculate a Michalis constant the maximum velocity obtained for Variant 03 was used.
# [6] = molecular target: T2, Trichoderma reesei Bgl1 variant Bgl1-var-03, V43L (numbered per mature Bgl1, SEQ ID NO:3); assay: steady state kinetics, hydrolysis of pNpX; format: biochemical
# Text: as §1, §2, §3
# [7] = molecular target: T3, Trichoderma reesei Bgl1 variant Bgl1-var-12, V43F/W237A (numbered per mature Bgl1, SEQ ID NO:3); assay: steady state kinetics, hydrolysis of pNpX; format: biochemical
# Text: as §1, §2, §3
# [8] = molecular target: T4, Trichoderma reesei Bgl1 variant Bgl1-var-02, V43F (numbered per mature Bgl1, SEQ ID NO:3); assay: steady state kinetics, hydrolysis of pNpX; format: biochemical
# Text: as §1, §2, §3
# [9] = substrate: O=[N+]([O-])c1ccc(O[C@@H]2OC[C@@H](O)[C@H](O)[C@H]2O)cc1; assay: steady state kinetics, hydrolysis of pNpX; format: biochemical, Trichoderma reesei; conditions: other: pNpX, 37° C.
# Text: as §1, §2, §3
# [10] = substrate: O=[N+]([O-])c1ccc(O[C@@H]2O[C@H](CO)[C@@H](O)[C@H](O)[C@H]2O)cc1; assay: steady state kinetics, hydrolysis of pNpG; format: biochemical, Trichoderma reesei; conditions: other: pNpG, 0.1-9 mM, 37° C., 30 minutes
# Text: as §1, §2
# [11] = pNpG, 0.1-9 mM, 37° C., 30 minutes
# [12] = fold reduction versus wild type, Table 7
# [13] = pNpX, 0.1-9 mM, 37° C., 30 minutes
molecule,measurement,setting,value
"O=[N+]([O-])c1ccc(O[C@@H]2O[C@H](CO)[C@@H](O)[C@H](O)[C@H]2O)cc1 [pNpG, para-nitrophenol-beta-D-glucopyranoside]",Relative Vmax,[1],100.0 ± 0.1
same,Relative Vmax,[2]; [11],87 ± 2
same,efficiency for hydrolysis of pNpG compared with Bgl1 wild type,"[2]; versus wild type, Table 7",approximately equal
same,"efficiency for hydrolysis of pNpG, reduced relative to Bgl1 wild type",[3]; [12],26 ×
same,Relative Vmax,[3]; [11],27 ± 10
same,"efficiency for hydrolysis of pNpG, reduced relative to Bgl1 wild type",[4]; [12],8 ×
same,Relative Vmax,[4]; [11],46 ± 6
"O=[N+]([O-])c1ccc(O[C@@H]2OC[C@@H](O)[C@H](O)[C@H]2O)cc1 [pNpX, para-nitrophenol-beta-D-xylopyranoside]",Relative Vmax,[5],100 ± 4
same,Relative Vmax,[6]; [13],100 ± 4
same,more efficient hydrolysis of pNpX as compared to the wild type Bgl1,"[6]; ratio to wild type, Table 6",6-7 fold
same,Relative Vmax,[7]; [13],89 ± 4
same,higher efficiency of pNpX hydrolysis than the wild type,"[7]; ratio to wild type, Table 6",about 2 ×
same,Relative Vmax,[8]; [13],93 ± 4
same,more efficient hydrolysis of pNpX as compared to the wild type Bgl1,"[8]; ratio to wild type, Table 6",6-7 fold
B1,Km,"[9]; 0.1-9 mM, 30 minutes",5.7 mM
same,Km,[10],4.8 mM
B2,Km,"[9]; 0.1-9 mM, 30 minutes",7 mM
same,Km,[10],1.17 mM
B3,Km,"[9]; 0.1-9 mM, 30 minutes",18.4 mM
same,Km,[10],9.1 mM
B4,Km,"[9]; data could not be fitted, calculated with the maximum velocity obtained for Variant 03",45.1 mM
same,Km,[10],1.3 mM
